Common to all, as to assay type: cell-based
Assay [1] has as its target T1, GluClβWT (GLC-2) homomeric receptor (Caenorhabditis elegans, UniProt Q17328).
T1 construct: entry codes of the full-length subunits used in this study; expressed in transfected cells; host or cells: CHO cells, transient transfection, pcDNA3.1
T1 sequence (Q17328 23-434): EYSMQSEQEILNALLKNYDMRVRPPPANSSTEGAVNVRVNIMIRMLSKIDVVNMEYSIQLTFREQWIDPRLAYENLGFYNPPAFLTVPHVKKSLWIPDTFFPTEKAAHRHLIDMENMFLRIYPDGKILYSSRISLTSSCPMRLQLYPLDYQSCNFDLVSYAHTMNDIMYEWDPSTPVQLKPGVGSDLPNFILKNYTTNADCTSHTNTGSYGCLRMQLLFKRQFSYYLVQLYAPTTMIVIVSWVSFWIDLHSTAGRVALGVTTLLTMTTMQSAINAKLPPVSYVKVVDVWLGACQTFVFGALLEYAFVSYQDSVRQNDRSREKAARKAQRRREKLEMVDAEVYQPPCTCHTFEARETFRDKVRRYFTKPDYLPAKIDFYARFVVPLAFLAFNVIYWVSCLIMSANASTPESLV
Description: Whole-cell patch clamp in CHO cells transfected with GluClβWT subunit alone. The settings on record: βWT alone, 500 nM IVM, -60 mV. As to the method:
(§1) Chinese hamster ovary (CHO) cells were cultured as previously (Bar-Lev et al., [2011]) in Dulbecco’s Modified Eagle Medium (DMEM) containing 10% fetal calf serum, 2 mM glutamax, 100 Units/ml penicillin G and 100 μg/ml streptomycin, and grown in 5% CO2 at 37°C under 90%–95% humidity. The cells were seeded on glass coverslips (13-mm diameter) placed in a 24-multiwell plate. […] For the expression of GluCl receptors, cells were transiently co-transfected with pcDNA3.1 plasmids containing the ORFs of interest using transit-LT1 transfection reagent (Mirus, Madison, WI, USA), according to the manufacturer’s protocol. The cDNAs encoding the C. elegans GluClα (GLC-1) or its mutated versions and the GluClβ (GLC-2) subunits (200–600 ng per well) were used at 1:1 ratio. The pIRES-CD8 plasmid (200 ng per well) was added to enable the visualization of the expressing cells by beads coated with anti-CD8 antibodies (Invitrogen). […]
(§2) Whole-cell patch clamp recordings were performed as described previously (Bar-Lev et al., [2011]) in CHO cells that were prepared as detailed above. […] The currents were measured with an Axopatch 200B patch-clamp amplifier (Molecular Devices, Sunnyvale, CA, USA) and a Digidata 1440A interface (Molecular Devices). […]
A general note: The patch-clamp technique gives a direct electrical read-out from membranes.

For another assay, the target named is T2, GluClαE273R/βWT receptor (Caenorhabditis elegans, UniProt G5EBR3+Q17328, E273R).
T2 construct: entry codes of the full-length subunits used in this study; expressed in transfected cells; host or cells: CHO cells, transient co-transfection 1:1, pcDNA3.1
Kind of assay: Whole-cell patch clamp in CHO cells, GluClαE273R/βWT receptor. The note with it: 500 nM IVM, -60 mV. As to the method: as §1, §2

The next assay concerns the target T3, GluClαF276W/βWT receptor (Caenorhabditis elegans, UniProt G5EBR3+Q17328, F276W).
T3 construct: entry codes of the full-length subunits used in this study; expressed in transfected cells; host or cells: CHO cells, transient co-transfection 1:1, pcDNA3.1
Kind of assay: Whole-cell patch clamp in CHO cells, GluClαF276W/βWT receptor. The note with it: 500 nM IVM, -60 mV. As to the method: as §1, §2

T3 sequence (G5EBR3 21-461 F276W, one chain of several): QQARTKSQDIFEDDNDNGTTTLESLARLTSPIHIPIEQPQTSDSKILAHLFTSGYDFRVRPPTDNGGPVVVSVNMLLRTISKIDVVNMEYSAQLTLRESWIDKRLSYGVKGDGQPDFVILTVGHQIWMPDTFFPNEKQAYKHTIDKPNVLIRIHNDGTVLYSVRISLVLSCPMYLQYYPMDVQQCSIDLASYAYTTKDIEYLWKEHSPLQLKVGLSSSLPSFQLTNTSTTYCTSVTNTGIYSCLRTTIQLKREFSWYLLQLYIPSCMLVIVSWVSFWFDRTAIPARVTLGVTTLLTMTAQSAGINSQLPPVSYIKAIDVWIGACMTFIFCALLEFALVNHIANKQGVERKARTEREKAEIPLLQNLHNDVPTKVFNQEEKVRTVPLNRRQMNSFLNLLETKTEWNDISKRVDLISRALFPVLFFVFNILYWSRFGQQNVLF
T2 sequence (G5EBR3 21-461 E273R, one chain of several): as the sequence (G5EBR3 21-461 F276W, one chain of several) above, with E253R, W256F counted along it

As for `CC[C@H](C)[C@H]1O[C@]2(CC[C@@H]1C)C[C@@H]1C[C@@H](C/C=C(\C)[C@@H](O[C@H]3C[C@H](OC)[C@@H](O[C@H]4C[C@H](OC)[C@@H](O)[C@H](C)O4)[C@H](C)O3)[C@@H](C)/C=C/C=C3\CO[C@@H]4[C@H](O)C(C)=C[C@@H](C(=O)O1)[C@]34O)O2` [IVM, ivermectin], the entries for the “IVM (500 nM) Amplitude” value (in assay [1]; on GluClαE273R/βWT receptor; on GluClαF276W/βWT receptor) were 0.0 ± 0.0 (10) nA, 1.0 ± 0.2 nA and 1.2 ± 0.2 nA, respectively.
